From PubChem BioAssay AID2060603 (Molecular Pharmacology Branch, DTP, NCI, 2025)

System: 422866-222-R5-J1-PDC spheroid viability
Assay: Anticancer human tumor 422866-222-R5-J1-PDC patient-derived pancreatic adenocarcinoma cell line growth inhibition [CLK]
Details: spheroids with HUVEC and MSC; for IC50: curve of first compound; for viability, T/C: stronger effect = lower value
Procedure, shortened: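 Multi-cell-type spheroids combined patient-derived tumor cells with HUVEC endothelial cells and human mesenchymal stem cells. Paired agents were dosed in half-log steps down from about clinical Cmax, or from 10 microM where Cmax was unknown.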

[1] = second compound 0.0316 µM, first compound 0.0316 µM
[2] = second compound 0.0316 µM, first compound 0.1 µM
[3] = second compound 0.0316 µM, first compound 0.316 µM
[4] = second compound 0.0316 µM, first compound 1 µM
[5] = second compound 0.0316 µM, first compound 3.16 µM
[6] = second compound 0.0316 µM, first compound 10 µM
[7] = second compound 0.1 µM, first compound 0.0316 µM
[8] = second compound 0.1 µM, first compound 0.1 µM
[9] = second compound 0.1 µM, first compound 0.316 µM
[10] = second compound 0.1 µM, first compound 1 µM
[11] = second compound 0.1 µM, first compound 3.16 µM
[12] = second compound 0.1 µM, first compound 10 µM
[13] = second compound 0.316 µM, first compound 0.0316 µM
[14] = second compound 0.316 µM, first compound 0.1 µM
[15] = second compound 0.316 µM, first compound 0.316 µM
[16] = second compound 0.316 µM, first compound 1 µM
[17] = second compound 0.316 µM, first compound 3.16 µM
[18] = second compound 0.316 µM, first compound 10 µM
[19] = second compound 1 µM, first compound 0.0316 µM
[20] = second compound 1 µM, first compound 0.1 µM
[21] = second compound 1 µM, first compound 0.316 µM
[22] = second compound 1 µM, first compound 1 µM
[23] = second compound 1 µM, first compound 3.16 µM
[24] = second compound 1 µM, first compound 10 µM
[25] = second compound 3.16 µM, first compound 0.0316 µM
[26] = second compound 3.16 µM, first compound 0.1 µM
[27] = second compound 3.16 µM, first compound 0.316 µM
[28] = second compound 3.16 µM, first compound 1 µM
[29] = second compound 3.16 µM, first compound 3.16 µM
[30] = second compound 3.16 µM, first compound 10 µM
[31] = second compound 10 µM, first compound 0.0316 µM
[32] = second compound 10 µM, first compound 0.1 µM
[33] = second compound 10 µM, first compound 0.316 µM
[34] = second compound 10 µM, first compound 1 µM
[35] = second compound 10 µM, first compound 3.16 µM
[36] = second compound 10 µM, first compound 10 µM
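Note: spheroids exposed to agents for seven days before readout.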

Question: What does the source list for `CC(=O)O[C@H]1C(=O)[C@@]2(C)[C@H]([C@H](OC(=O)c3ccccc3)[C@]3(O)C[C@H](OC(=O)[C@H](O)[C@@H](NC(=O)c4ccccc4)c4ccccc4)C(C)=C1C3(C)C)[C@]1(OC(C)=O)CO[C@@H]1C[C@@H]2O` + CNC(=O)c1ccc(Nc2nc(OC3CCCC3)c3c(-c4ccc5nc(C)oc5c4)c[nH]c3n2)c(OC)c1?
Answer: IC50 (second compound 0.0316 µM): > 10 µM; IC50 (second compound 0.1 µM): > 10 µM; IC50 (second compound 0.316 µM): > 10 µM; IC50 (second compound 1 µM): 0.0316 µM; IC50 (second compound 3.16 µM): > 10 µM; IC50 (second compound 10 µM): > 10 µM; viability, T/C [1]: 68.8%; viability, T/C [2]: 61.1%; viability, T/C [3]: 65.3%; viability, T/C [4]: 83.3%; viability, T/C [5]: 102%; viability, T/C [6]: 100%; viability, T/C [7]: 61%; viability, T/C [8]: 67.9%; viability, T/C [9]: 63%; viability, T/C [10]: 74.8%; viability, T/C [11]: 78.5%; viability, T/C [12]: 98.1%; viability, T/C [13]: 59.4%; viability, T/C [14]: 68%; viability, T/C [15]: 62.2%; viability, T/C [16]: 61.4%; viability, T/C [17]: 65.5%; viability, T/C [18]: 78.7%; viability, T/C [19]: 56.5%; viability, T/C [20]: 48.4%; viability, T/C [21]: 52.8%; viability, T/C [22]: 48.5%; viability, T/C [23]: 66.5%; viability, T/C [24]: 73%; viability, T/C [25]: 56.5%; viability, T/C [26]: 60.8%; viability, T/C [27]: 52.3%; viability, T/C [28]: 57.9%; viability, T/C [29]: 70.5%; viability, T/C [30]: 79%; viability, T/C [31]: 48.9%; viability, T/C [32]: 60.1%; viability, T/C [33]: 61.4%; viability, T/C [34]: 53.9%; viability, T/C [35]: 65.4%; viability, T/C [36]: 70.5%

Question: For `CCc1c2c(nc3ccc(O)cc13)-c1cc3c(c(=O)n1C2)COC(=O)[C@]3(O)CC` + CNC(=O)c1ccc(Nc2nc(OC3CCCC3)c3c(-c4ccc5nc(C)oc5c4)c[nH]c3n2)c(OC)c1, which IC50 (second compound 0.0316 µM) is on record?
Answer: Its IC50 is less than 0.00316 µM.

Question: And the IC50 (second compound 0.1 µM)?
Answer: The IC50 was less than 0.00316 µM.

Question: What about the IC50 (second compound 0.316 µM) of the same molecule?
Answer: The IC50 was less than 0.00316 µM.

Question: And the IC50 (second compound 1 µM)?
Answer: The IC50 was less than 0.00316 µM.

Question: And the IC50 (second compound 3.16 µM)?
Answer: Its IC50 is less than 0.00316 µM.

Question: What about the IC50 (second compound 10 µM) of the same molecule?
Answer: Its IC50 is less than 0.00316 µM.

Question: What about the viability, T/C (second compound 0.0316 µM, first compound 0.00316 µM) of the same molecule?
Answer: Its viability, T/C is 45.6%.

Question: What about the viability, T/C (second compound 0.0316 µM, first compound 0.01 µM) of the same molecule?
Answer: Its viability, T/C is 46.4%.

Question: And the viability, T/C [1]?
Answer: The viability, T/C was 51%.

Question: And the viability, T/C [2]?
Answer: Its viability, T/C is 46.5%.

Question: What about the viability, T/C [3] of the same molecule?
Answer: Its viability, T/C is 42.7%.

Question: What about the viability, T/C [4] of the same molecule?
Answer: Its viability, T/C is 16.4%.

Question: What about the viability, T/C (second compound 0.1 µM, first compound 0.00316 µM) of the same molecule?
Answer: Its viability, T/C is 49.1%.

Question: What about the viability, T/C (second compound 0.1 µM, first compound 0.01 µM) of the same molecule?
Answer: The viability, T/C was 43.8%.

Question: What about the viability, T/C [7] of the same molecule?
Answer: Its viability, T/C is 40.2%.

Question: And the viability, T/C [8]?
Answer: The viability, T/C was 38%.

Question: And the viability, T/C [9]?
Answer: Its viability, T/C is 40%.

Question: And the viability, T/C [10]?
Answer: The viability, T/C was 19.6%.

Question: What about the viability, T/C (second compound 0.316 µM, first compound 0.00316 µM) of the same molecule?
Answer: Its viability, T/C is 42.3%.

Question: And the viability, T/C (second compound 0.316 µM, first compound 0.01 µM)?
Answer: The viability, T/C was 33.2%.

Question: What about the viability, T/C [13] of the same molecule?
Answer: Its viability, T/C is 30.9%.

Question: What about the viability, T/C [14] of the same molecule?
Answer: Its viability, T/C is 38.5%.

Question: And the viability, T/C [15]?
Answer: Its viability, T/C is 27.6%.

Question: And the viability, T/C [16]?
Answer: Its viability, T/C is 24.5%.

Question: And the viability, T/C (second compound 1 µM, first compound 0.00316 µM)?
Answer: The viability, T/C was 46.8%.

Question: And the viability, T/C (second compound 1 µM, first compound 0.01 µM)?
Answer: The viability, T/C was 28.1%.

Question: What about the viability, T/C [19] of the same molecule?
Answer: Its viability, T/C is 38.2%.

Question: And the viability, T/C [20]?
Answer: Its viability, T/C is 42.4%.

Question: And the viability, T/C [21]?
Answer: The viability, T/C was 20.8%.

Question: What about the viability, T/C [22] of the same molecule?
Answer: Its viability, T/C is 25.8%.

Question: What about the viability, T/C (second compound 3.16 µM, first compound 0.00316 µM) of the same molecule?
Answer: The viability, T/C was 41.9%.

Question: And the viability, T/C (second compound 3.16 µM, first compound 0.01 µM)?
Answer: Its viability, T/C is 38.7%.

Question: And the viability, T/C [25]?
Answer: Its viability, T/C is 33%.

Question: And the viability, T/C [26]?
Answer: The viability, T/C was 39.8%.

Question: And the viability, T/C [27]?
Answer: Its viability, T/C is 22.6%.

Question: What about the viability, T/C [28] of the same molecule?
Answer: The viability, T/C was 23.3%.

Question: What about the viability, T/C (second compound 10 µM, first compound 0.00316 µM) of the same molecule?
Answer: The viability, T/C was 31.2%.

Question: What about the viability, T/C (second compound 10 µM, first compound 0.01 µM) of the same molecule?
Answer: The viability, T/C was 27.5%.

Question: And the viability, T/C [31]?
Answer: Its viability, T/C is 38.4%.

Question: And the viability, T/C [32]?
Answer: The viability, T/C was 32.7%.

Question: What about the viability, T/C [33] of the same molecule?
Answer: The viability, T/C was 23.7%.

Question: And the viability, T/C [34]?
Answer: Its viability, T/C is 28.7%.

Question: Which results are given for `O=c1[nH]cc(F)c(=O)[nH]1` + CNC(=O)c1ccc(Nc2nc(OC3CCCC3)c3c(-c4ccc5nc(C)oc5c4)c[nH]c3n2)c(OC)c1?
Answer: IC50 (second compound 0.0316 µM): > 10 µM; IC50 (second compound 0.1 µM): > 10 µM; IC50 (second compound 0.316 µM): > 10 µM; IC50 (second compound 1 µM): 2.18 µM; IC50 (second compound 3.16 µM): > 10 µM; IC50 (second compound 10 µM): 3.11 µM; viability, T/C [1]: 102%; viability, T/C [2]: 103%; viability, T/C [3]: 89.9%; viability, T/C [4]: 91.2%; viability, T/C [5]: 82.2%; viability, T/C [6]: 72.5%; viability, T/C [7]: 100%; viability, T/C [8]: 98.1%; viability, T/C [9]: 86%; viability, T/C [10]: 78.1%; viability, T/C [11]: 87%; viability, T/C [12]: 78.3%; viability, T/C [13]: 79.3%; viability, T/C [14]: 79.7%; viability, T/C [15]: 68.9%; viability, T/C [16]: 61.7%; viability, T/C [17]: 58.3%; viability, T/C [18]: 57.2%; viability, T/C [19]: 68.2%; viability, T/C [20]: 67.1%; viability, T/C [21]: 51.6%; viability, T/C [22]: 54.2%; viability, T/C [23]: 51%; viability, T/C [24]: 44.5%; viability, T/C [25]: 58.3%; viability, T/C [26]: 78.6%; viability, T/C [27]: 73.1%; viability, T/C [28]: 56.8%; viability, T/C [29]: 52.5%; viability, T/C [30]: 49.4%; viability, T/C [31]: 60.6%; viability, T/C [32]: 63.7%; viability, T/C [33]: 70%; viability, T/C [34]: 57.7%; viability, T/C [35]: 46.4%; viability, T/C [36]: 53.5%
